Read-outs that look alike come from different tables or passages of the source. Starred links: 1 amine or outer side, 2 acyl side, 3 side chain; linkers in the order of their positions; H or OH if unused. Non-standard residues stand in square brackets, D forms with d. Residues, ends and D or L forms follow the SMILES beside them. Groups on a side chain read outwards from the residue. No end group written: not given here. *: point of attachment. C20 diacid = O=C(O)CCCCCCCCCCCCCCCCCCC(=O)*; C18 diacid = O=C(O)CCCCCCCCCCCCCCCCC(=O)*; αMePhe(2-F) = C[C@](N)(Cc1ccccc1F)C(=O)O; γGlu = O=C(O)[C@H](CCC(=O)[*:2])N[*:1]; αMe4Pal = C[C@](N)(Cc1ccncc1)C(=O)O; αMeY = C[C@](N)(Cc1ccc(O)cc1)C(=O)O; 4Pal = N[C@@H](Cc1ccncc1)C(=O)O; αMeL = CC(C)C[C@](C)(N)C(=O)O; αMeS = C[C@](N)(CO)C(=O)O; Orn = NCCC[C@H](N)C(=O)O; AEEA = NCCOCCOCC(=O)O; Aib = CC(C)(N)C(=O)O
Key:
Format in all cases: cell-based
[1] = molecular target: T1, hGIPR (Homo sapiens, UniProt P48546); assay: Functional cAMP activation in the presence of 0.1% casein (no HSA); conditions: read-out: Relative cAMP EC50, hGIPR;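 also: intracellular cAMP rise after 30 min at 37 °C read by HTRF against a standard curve, scaled between buffer alone (0%) and top control ligand concentration (100%), four-parameter fit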
T1 sequence (P48546 22-466): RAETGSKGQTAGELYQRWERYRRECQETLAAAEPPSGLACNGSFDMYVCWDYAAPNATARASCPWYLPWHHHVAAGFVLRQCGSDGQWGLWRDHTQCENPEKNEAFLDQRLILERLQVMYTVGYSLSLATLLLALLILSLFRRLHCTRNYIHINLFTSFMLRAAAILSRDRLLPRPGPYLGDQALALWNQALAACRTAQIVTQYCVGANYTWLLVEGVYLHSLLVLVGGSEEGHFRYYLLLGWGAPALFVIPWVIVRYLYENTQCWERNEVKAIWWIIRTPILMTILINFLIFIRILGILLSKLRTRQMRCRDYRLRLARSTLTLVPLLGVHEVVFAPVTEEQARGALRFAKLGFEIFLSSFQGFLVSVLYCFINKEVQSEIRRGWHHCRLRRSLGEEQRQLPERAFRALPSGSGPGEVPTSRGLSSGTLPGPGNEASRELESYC

[2] = molecular target: T2, hGLP-1R (Homo sapiens, UniProt P43220); assay: as above; conditions: read-out: Relative cAMP EC50, hGLP-1R;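 also: intracellular cAMP rise after 30 min at 37 °C read by HTRF, normalized between buffer only (0%) and maximal control ligand (100%), four-parameter variable-slope fit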
[3] = molecular target: hGcgR (Homo sapiens, UniProt P47871); assay: as above; conditions: read-out: Relative cAMP EC50, hGcgR;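 also: intracellular cAMP rise after 30 min at 37 °C, read by HTRF against a cAMP standard curve, scaled from buffer only (0%) to maximal control ligand response (100%)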
[4] = molecular target: human GcgR (Homo sapiens, UniProt P47871); assay: Functional cAMP activity in the presence of 1% HSA; conditions: read-out: cAMP Rel EC50, hGcgR
[5] = molecular target: T2, hGLP-1R; assay: Functional cAMP activity in the presence of 1% HSA; conditions: read-out: cAMP Rel EC50, hGLP-1R
[6] = molecular target: T1, hGIPR; assay: Functional cAMP activity in the presence of 1% HSA; conditions: read-out: cAMP Rel EC50, hGIPR
[7] = in the presence of 0.1% casein (no HSA), geometric mean
[8] = 0.1% casein, no HSA, geometric mean

T2 sequence (P43220 24-463): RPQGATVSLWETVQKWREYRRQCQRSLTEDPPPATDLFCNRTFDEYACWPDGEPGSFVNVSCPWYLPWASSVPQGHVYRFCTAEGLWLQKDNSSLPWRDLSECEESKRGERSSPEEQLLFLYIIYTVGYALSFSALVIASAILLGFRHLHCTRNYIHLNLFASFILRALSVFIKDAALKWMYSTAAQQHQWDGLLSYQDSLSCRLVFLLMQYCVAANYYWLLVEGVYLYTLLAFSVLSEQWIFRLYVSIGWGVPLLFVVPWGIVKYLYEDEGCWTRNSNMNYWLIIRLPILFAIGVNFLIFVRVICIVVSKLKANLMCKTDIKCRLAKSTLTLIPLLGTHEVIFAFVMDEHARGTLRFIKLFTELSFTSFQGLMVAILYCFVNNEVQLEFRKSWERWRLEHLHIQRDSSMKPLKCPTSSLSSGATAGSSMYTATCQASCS
Sequence of human GcgR (P47871 26-477): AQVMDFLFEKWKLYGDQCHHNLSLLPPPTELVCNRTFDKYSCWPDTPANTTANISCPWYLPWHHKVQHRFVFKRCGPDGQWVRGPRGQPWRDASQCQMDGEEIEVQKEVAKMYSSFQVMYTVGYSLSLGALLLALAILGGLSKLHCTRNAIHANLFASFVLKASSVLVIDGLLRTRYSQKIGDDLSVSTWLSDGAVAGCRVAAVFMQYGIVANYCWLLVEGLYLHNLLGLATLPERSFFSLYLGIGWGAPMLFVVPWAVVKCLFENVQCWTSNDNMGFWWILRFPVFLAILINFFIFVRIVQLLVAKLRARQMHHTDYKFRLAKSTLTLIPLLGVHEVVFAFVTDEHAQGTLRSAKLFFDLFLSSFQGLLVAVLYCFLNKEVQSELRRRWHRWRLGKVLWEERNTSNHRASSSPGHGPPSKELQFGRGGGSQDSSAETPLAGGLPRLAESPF
Sequence of hGcgR (P47871 26-477): as above

Compound | EC50 [1] [nM] | EC50 [2] [nM] | EC50 [3] [nM] | EC50 [4] [nM] | EC50 [5] [nM] | EC50 [6] [nM] | EC50 [1, 7] [nM] | EC50 [2, 7] [nM] | EC50 [3, 7] [nM] | EC50 [1, 8] [nM] | EC50 [2, 8] [nM] | EC50 [3, 8] [nM]
H-Y[Aib]QGT[αMePhe(2-F)]TSD[4Pal]SILLDKK([γGlu-γGlu-C18 diacid])AQ[Aib]AFIEWLQEGGPSSGEPPPSGTEE-NH2 [Example 579] | 0.0171 | 0.252 | 2.36 | 679 | 67.3 | 3.79 | – | – | – | – | – | –
H-Y[Aib]QGTFTSDYSI[αMeL]LDKIAAK([AEEA-AEEA-γGlu-C20 diacid])QFVEYLIAGGPSSGEPPPSEG-NH2 [Example 312] | – | – | – | 4070 | 589 | 97.7 | 0.504 | 2.66 | 7.5 | – | – | –
Y[Aib]QGTFTSD[4Pal]SQ[αMeL]LDKK([Glu-Glu-γGlu-C18 diacid])AQ[αMe4Pal]AFIEYLIE[Aib]GPSSGAPPPSGS-NH2 [Example 895] | – | – | – | 1250 | 599 | 34 | 0.111 | 3.72 | 4.68 | – | – | –
CC[C@H](C)[C@H](NC(=O)[C@H](CC(C)C)NC(=O)[C@H](Cc1ccc(O)cc1)NC(=O)[C@H](CCC(=O)O)NC(=O)[C@@H](NC(=O)[C@H](Cc1ccccc1)NC(=O)[C@H](C)NC(=O)C(C)(C)NC(=O)[C@H](CCC(N)=O)NC(=O)[C@H](C)NC(=O)[C@H](CCCCNC(=O)COCCOCCNC(=O)COCCOCCNC(=O)CC[C@H](NC(=O)CCCCCCCCCCCCCCCCCCC(=O)O)C(=O)O)NC(=O)[C@H](CCCCN)NC(=O)[C@H](CC(=O)O)NC(=O)[C@H](CC(C)C)NC(=O)[C@](C)(CC(C)C)NC(=O)[C@@H](NC(=O)[C@](C)(CO)NC(=O)[C@H](Cc1ccc(O)cc1)NC(=O)[C@H](CC(=O)O)NC(=O)[C@H](CO)NC(=O)[C@@H](NC(=O)[C@H](Cc1ccccc1)NC(=O)[C@@H](NC(=O)CNC(=O)[C@H](CCC(N)=O)NC(=O)C(C)(C)NC(=O)[C@@H](N)Cc1ccc(O)cc1)[C@@H](C)O)[C@@H](C)O)[C@@H](C)CC)[C@@H](C)CC)C(=O)N[C@@H](CCC(=O)O)C(=O)NCC(=O)NCC(=O)N1CCC[C@H]1C(=O)N[C@@H](CO)C(=O)N[C@@H](CO)C(=O)NCC(=O)N[C@@H](C)C(=O)N1CCC[C@H]1C(=O)N1CCC[C@H]1C(=O)N1CCC[C@H]1C(=O)N[C@@H](CO)C(N)=O [Example 382] (H-Y[Aib]QGTFTSDY[αMeS]I[αMeL]LDKK([AEEA-AEEA-γGlu-C20 diacid])AQ[Aib]AFIEYLIEGGPSSGAPPPS-NH2) | – | – | – | 1050 | 61.5 | 17.7 | 0.0368 | 0.291 | 3.72 | – | – | –
CC[C@H](C)[C@H](NC(=O)[C@H](Cc1ccccc1)NC(=O)[C@H](CCCN)NC(=O)C(C)(C)NC(=O)[C@H](CCC(N)=O)NC(=O)[C@H](C)NC(=O)[C@H](CCCCNC(=O)COCCOCCNC(=O)CC[C@H](NC(=O)CCCCCCCCCCCCCCCCC(=O)O)C(=O)O)NC(=O)[C@H](CCCN)NC(=O)[C@H](CC(=O)O)NC(=O)[C@H](CC(C)C)NC(=O)[C@](C)(CC(C)C)NC(=O)[C@@H](NC(=O)[C@H](CO)NC(=O)[C@H](Cc1ccncc1)NC(=O)[C@H](CC(=O)O)NC(=O)[C@H](CO)NC(=O)[C@@H](NC(=O)[C@](C)(Cc1ccccc1F)NC(=O)[C@@H](NC(=O)CNC(=O)[C@H](CCC(N)=O)NC(=O)C(C)(C)NC(=O)[C@@H](N)Cc1ccc(O)cc1)[C@@H](C)O)[C@@H](C)O)[C@@H](C)CC)C(=O)N[C@H](CCC(=O)O)C(=O)N[C@@](C)(Cc1ccc(O)cc1)C(=O)N[C@@H](CC(C)C)C(=O)N[C@@H](CC(C)C)C(=O)N[C@@H](CCC(=O)O)C(=O)NCC(=O)NCC(=O)N1CCC[C@H]1C(=O)N[C@@H](CO)C(=O)N[C@@H](CO)C(=O)NCC(=O)N[C@@H](CCC(=O)O)C(=O)N1CCC[C@H]1C(=O)N1CCC[C@H]1C(=O)N1CCC[C@H]1C(=O)N[C@@H](CCC(=O)O)C(N)=O [Example 370] (H-Y[Aib]QGT[αMePhe(2-F)]TSD[4Pal]SI[αMeL]LD[Orn]K([AEEA-γGlu-C18 diacid])AQ[Aib][Orn]FI[dE][αMeY]LLEGGPSSGEPPPE-NH2) | – | – | – | 803 | 37.5 | 4.23 | 0.027 | 0.406 | 7.06 | – | – | –
CC[C@H](C)[C@H](NC(=O)[C@H](CCCCN)NC(=O)[C@H](CC(=O)O)NC(=O)[C@H](CC(C)C)NC(=O)[C@](C)(CC(C)C)NC(=O)[C@@H](NC(=O)[C@H](CO)NC(=O)[C@H](Cc1ccc(O)cc1)NC(=O)[C@H](CC(=O)O)NC(=O)[C@H](CO)NC(=O)[C@@H](NC(=O)[C@](C)(Cc1ccccc1F)NC(=O)[C@@H](NC(=O)CNC(=O)[C@H](CCC(N)=O)NC(=O)C(C)(C)NC(=O)[C@@H](N)Cc1ccc(O)cc1)[C@@H](C)O)[C@@H](C)O)[C@@H](C)CC)C(=O)N[C@@H](C)C(=O)N[C@@H](CCC(N)=O)C(=O)NC(C)(C)C(=O)N[C@@H](C)C(=O)N[C@@H](Cc1ccccc1)C(=O)N[C@H](C(=O)N[C@@H](CCCCNC(=O)COCCOCCNC(=O)CC[C@H](NC(=O)CCCCCCCCCCCCCCCCC(=O)O)C(=O)O)C(=O)N[C@@H](Cc1ccc(O)cc1)C(=O)N[C@@H](CC(C)C)C(=O)N[C@@H](CCC(=O)O)C(=O)N[C@@H](CCC(=O)O)C(=O)NCC(=O)NCC(=O)N1CCC[C@H]1C(=O)N[C@@H](CO)C(=O)N[C@@H](CO)C(=O)NCC(=O)N[C@@H](C)C(=O)N1CCC[C@H]1C(=O)N1CCC[C@H]1C(=O)N1CCC[C@H]1C(=O)N[C@@H](CO)C(N)=O)[C@@H](C)CC [Example 455] (H-Y[Aib]QGT[αMePhe(2-F)]TSDYSI[αMeL]LDKIAQ[Aib]AFIK([AEEA-γGlu-C18 diacid])YLEEGGPSSGAPPPS-NH2) | 0.0182 | 0.49 | 4.36 | 1200 | 105 | 5.2 | – | – | – | – | – | –
H-Y[Aib]QGT[αMePhe(2-F)]TSD[4Pal][αMeS]I[αMeL]LD[Orn][Orn]([AEEA-γGlu-C18 diacid])AQ[αMe4Pal]EFI[dE][αMeY]LIEGGPSSGAPPPSGGGE-NH2 [Example 1213] | – | – | – | 268 | 44 | 0.616 | – | – | – | 0.00721 | 0.423 | 1.69
H-Y[Aib]QGTFTSD[4Pal]SR[αMeL]LDKK([γGlu-γGlu-C18 diacid])AQ[αMe4Pal]AFIEYLIAGGESSGAPPPSGSEE-NH2 [Example 965] | – | – | – | 430 | 194 | 23.2 | 0.13 | 1.39 | 3.35 | – | – | –
H-Y[Aib]QGTFTSDFS[Orn][αMeL]LDKK([AEEA-γGlu-C18 diacid])AQ[Aib]AFIEWLLEGGPSSGAPPPEG[4Pal]-NH2 [Example 262] | – | – | – | 720 | 400 | 40.4 | 0.232 | 4.39 | 9.77 | – | – | –
H-Y[Aib]QGTFTSD[4Pal]SR[αMeL]LDKK([γGlu-γGlu-C18 diacid])AQ[αMe4Pal]AFIE[αMe4Pal]LIEGGPSSGAPPPSGS-NH2 [Example 953] | – | – | – | 275 | 347 | 10.9 | 0.111 | 2.63 | 2.75 | – | – | –
CC[C@H](C)[C@H](NC(=O)[C@H](CC(C)C)NC(=O)[C@](C)(Cc1ccc(O)cc1)NC(=O)[C@@H](CCC(=O)O)NC(=O)[C@@H](NC(=O)[C@H](Cc1ccccc1)NC(=O)[C@H](CCC(=O)O)NC(=O)C(C)(C)NC(=O)[C@H](C)NC(=O)[C@H](C)NC(=O)[C@H](CCCCNC(=O)COCCOCCNC(=O)CC[C@H](NC(=O)CCCCCCCCCCCCCCCCC(=O)O)C(=O)O)NC(=O)[C@H](CCCN)NC(=O)[C@H](CC(=O)O)NC(=O)[C@H](CC(C)C)NC(=O)[C@](C)(CC(C)C)NC(=O)[C@@H](NC(=O)[C@](C)(CO)NC(=O)[C@H](Cc1ccncc1)NC(=O)[C@H](CC(=O)O)NC(=O)[C@H](CO)NC(=O)[C@@H](NC(=O)[C@](C)(Cc1ccccc1F)NC(=O)[C@@H](NC(=O)CNC(=O)[C@H](CCC(N)=O)NC(=O)C(C)(C)NC(=O)[C@@H](N)Cc1ccc(O)cc1)[C@@H](C)O)[C@@H](C)O)[C@@H](C)CC)[C@@H](C)CC)C(=O)N[C@@H](CCC(=O)O)C(=O)NCC(=O)NCC(=O)N1CCC[C@H]1C(=O)N[C@@H](CO)C(=O)N[C@@H](CO)C(=O)NCC(=O)N[C@@H](C)C(=O)N1CCC[C@H]1C(=O)N1CCC[C@H]1C(=O)N1CCC[C@H]1C(=O)N[C@@H](CO)C(=O)NCC(=O)N[C@@H](CO)C(=O)N[C@@H](CCC(=O)O)C(N)=O [Example 702] | 0.0116 | 0.243 | 1.5 | 196 | 28.4 | 1.25 | – | – | – | – | – | –
H-Y[Aib]QGT[αMePhe(2-F)]TSD[4Pal]SI[αMeL]LDKK([γGlu-γGlu-C18 diacid])AQ[Aib]AFIEYLEEGGPSSGEPPPSGEGE-NH2 [Example 625] | 0.0291 | 1.16 | 8.53 | 657 | 72.1 | 1.81 | – | – | – | – | – | –
